From PMC10451668, “Natural Acetogenins, Chatenaytrienins-1, -2, -3 and -4, Mitochondrial Potential Uncouplers and Autophagy Inducers—Promising Anticancer Agents” (Antioxidants, 2023)

How the values were obtained:
Format in all cases: cell-based, human
[1] = Cytotoxicity assay (7-AAD viability, flow cytometry); conditions: human; Hek293, conditionally normal line; ± standard error of the mean, 95% CI in parenthesis
Description: (§1) Cells, including Jurkat E6.1 (human leukemic T cell lymphoblasts, catalogue no. 88042803), K562 (human chronic myelogenous leukemia cells, catalogue no. 89121407), U937 (human histiocytic lymphoma cells, catalogue no. 85011440), HL60 (human promyelocytic leukemia cells, catalog no. 98070106), HEK293 (human embryonic kidney cells with adenovirus, catalog no. 85120602), and human lung fibroblasts Ce (catalogue no. 90011883), were purchased from the European Collection of Authenticated Cell Cultures (UK Health Security Agency) and cultured according to standard protocols using sterile techniques. […] Cells were maintained in RPMI 1640 (Jurkat, K562, U937, and HL60) and DME M (fibroblast and HEK293) (Gibco) supplemented with […] glutamine, 10% FBS (Sigma), and 100 units/mL penicillin-streptomycin (Sigma). All types of cells were grown under an atmosphere of 5% CO2 at 37 °C. The cells were subcultured at 2–3-day intervals. Cells were then seeded in 24-well plates at 5 × 10^4 cells per well and incubated overnight. Jurkat, K562, U937, HL60, HEK293, and fibroblast cells were subcultured at 2-day intervals with a seeding density of 1 × 10^5 cells per well in 24-well plates in RPMI with 10% FBS.
(§2) Viability (live/dead) assessment was performed by staining cells with 7-AAD (7-aminoactinomycin D; Biolegend). After treatment, cells were harvested, washed 1–2 times with phosphate-buffered saline (PBS), and centrifuged at 400× g for 5 min. Cell pellets were resuspended in 200 µL of flow cytometry staining buffer (PBS without Ca^2+ and Mg^2+, 2.5% FBS) and stained with […] of 7-AAD staining solution for 15 min at room temperature in the dark. Samples were assessed using the NovoCyte Penteon Flow Cytometer System (Agilent, 5301 Stevens Creek Blvd., Santa Clara, CA, USA). Detection of 7-AAD emission was collected through a 675/30 nm filter in the FL4 channel.

HL60 = assay: as above; conditions: Homo sapiens, HL-60, ± standard error of the mean, 95% CI in parenthesis
Description: as §1, §2

Jurkat = assay: as above; conditions: Homo sapiens, ± standard error of the mean, 95% CI in parenthesis
Description: as §1, §2

K562 = assay: as above; conditions: Homo sapiens, ± standard error of the mean, 95% CI in parenthesis
Description: as §1, §2

U937 = assay: as above; conditions: Homo sapiens, U-937, ± standard error of the mean, 95% CI in parenthesis
Description: as §1, §2

[2] = as above; conditions: human; normal fibroblasts; ± standard error of the mean, 95% CI in parenthesis
Jurkat cells [3] = assay: Detection of mitodamage: mitochondrial membrane potential and apoptosis (MitoSense Red, annexin V, 7-AAD); conditions: compound at CC50, 4 h
Description: The use of reagents MitoSense Red, annexin V, and 7-AAD in the Millipore FlowCellect™ MitoDamage Kit allowed us to gain information on early, mid, and late apoptosis with one simple assay. […] After this time, the cells were dissociated using an accutase solution, stained, and analyzed using the NovoCyte Penteon Flow Cytometer System (Agilent, 5301 Stevens Creek Blvd., Santa Clara, CA, USA), according to the manufacturer’s protocols for the FlowCellect™ MitoDamage Kit and FlowCellect™ Oxidative Stress Characterization Kit (Merck).
Detection of mitochondrial potential dissipation using MitoSense Red, annexin V, and 7-AAD provided a simultaneous measurement of three important parameters of the cell state within the same cell sample: the state of the mitochondrial potential (Δψ), detected by the membrane-penetrating MitoSense Red dye; the expression of phosphatidylserine on the cell surface of apoptotic cells, assessed by the binding of annexin V to externalized phosphatidylserine; and the binding of 7-AAD to DNA in cells in the late stages of apoptosis. Multiparametric evaluation of these indicators of cell viability made it possible to determine the correlation and relationship between oxidation dissipation and phosphorylation with apoptosis.

Jurkat tumor cell line = assay: Assessment of cytochrome c loss (FlowCellect Cytochrome c Kit); conditions: compound at CC50, incubation 3 h, anti-cytochrome c-FITC
Experimental: Quantification of cytochrome c release from mitochondria in apoptotic cells was presented to detect the mitochondrial pathway of apoptosis in cells using flow cytometry with the FlowCellect™ Cytochrome c Kit (FCCH100110). For this, cells were treated with FITC-conjugated antibodies against cytochrome c and control anti-IgG1-FITC, together with the use of an optimized fixation procedure, permeabilization, and blocking buffer (Luminex®, USA). […] Jurkat cells were incubated for 4 h with the synthesized substances at a concentration corresponding to their 24-h CC50 in a culture plate and assessed using the NovoCyte Penteon Flow Cytometer System (Agilent, 5301 Stevens Creek Blvd., Santa Clara, CA, USA). The obtained data were processed using NovoExpress® software (ACEA).

Jurkat cells [4] = assay: Oxidative stress and early apoptosis (MitoSOX Red and annexin V, MitoStress Kit); conditions: compound at CC50, 4 h, MitoSOX Red and annexin V
Description: Changes in the mitochondrial membrane potential (ΔΨ) in Jurkat cells induced by treatment with the synthesized compounds were detected using MitoSOX Red, a positively charged probe that accumulates rapidly in mitochondria and as such can be used to detect superoxide/ROS production within mitochondria using fluorometry, microscopy, or flow cytometry. Live cells induced a low level of MitoSOX Red fluorescence, while cells with scattered mitochondrial membrane potential caused much higher MitoSOX Red fluorescence. Annexin V is a dye commonly used to detect early signs of apoptosis. […] Thus, using two different dyes, MitoSOX Red and annexin V (CF488A), in the FlowCellect™ MitoStress Kit (FCCH100109), we analyzed the mitochondrial membrane potential dissipation and associated apoptosis in Jurkat cells in response to the synthesized chatenaytrienins.
Therefore, simultaneous detection of mitochondrial superoxide generation (detected by MitoSOX Red membrane-penetrating dye) and expression of phosphatidylserine on the cell surface of apoptotic cells (assessed by binding of annexin V) in the same cell sample provides an accurate evaluation of the ability of the test compound to initiate oxidative stress in cell culture and induce apoptosis.

Jurkat cells [5] = assay: Assessment of autophagy (anti-LC3/FITC, flow cytometry); conditions: 0.5 CC50, 48 h
Description: Autophagy is involved in various physiological processes and its changes are associated with the pathogenesis of diseases such as neurodegenerative diseases, cardiovascular complications, cancer, and infectious diseases, as well as with physiological processes such as innate and specific immunity, pathogen clearance, lymphocyte selection, antigen presentation, and production of immunoglobulins. Therefore, the determination of LC3 protein inside autophagosomes without the cytosolic form of LC3-I at the stage of selective cell permeability was measured using flow cytometry. Thus, using the FlowCellect™ LC3-GFP Reporter Autophagy Assay Kit (FCCH100170 and FCCH100181), flow cytometry allowed for a rapid assay that could be combined with other phenotypic and functional markers to characterize different cell populations.
Canonical autophagy is associated with the conversion of LC3 protein (an autophagosome marker) from the cytoplasmic form of LC3I to the lipid-bound form of LC3II, which is associated with the membranes of maturing autophagosomes. The autophagy process can be conveniently classified into several stages. First, induction and translocation of the cytoplasmic LC3 protein occur due to the influence of external stimuli (adverse environmental influences)—the process is initiated by external/internal stimuli (for example, nutrient depletion or hypoxia). Then, the formation of autophagosomes begins, which are double-membrane vesicles that include the LC3 protein. This protein regulates the fusion of autophagosomes and lysosomes. It exists in two fractions—cytoplasmic LC3-I and LC3-II, isolated in the autophagosomal membrane. The LC3-II protein fraction was specified in our work, as its detection is a reliable indicator of the processes of autophagy in the cell.

Jurkat cells [6] = assay: Cell cycle analysis (propidium iodide, Guava Cell Cycle Reagent); conditions: compound at CC50, 48 h, control did not exceed 34.2%
Experimental: The cell cycle was analyzed by propidium iodide staining (Guava® Cell Cycle Reagent 4500-0220). […] The cell pellet was resuspended in 200 μL of flow cytometry staining buffer (PBS without Ca^2+ and Mg^2+, 2.5% FBS). Cells were then seeded in 24-well plates at a density of 15 × 10^5 cells per well, centrifuged at 450× g for 5 min, then fixed with ice-cold 70% ethanol for 24 h at 0 °C. Before staining with propidium iodide, cells were washed with PBS and incubated with 250 µL of cell cycle detection reagent (Millipore) for 40 min at 22 °C in the dark. Samples were analyzed using the NovoCyte Penteon Flow Cytometer System (Agilent, 5301 Stevens Creek Blvd., Santa Clara, CA, USA).

Question: What does the source list for CCCCCCCCCCCC/C=C\CC/C=C\CC/C=C\CCCCCCCCC1=C[C@H](C)OC1=O [compound 2, chatenaytrienin-2]?
Answer: CC50 [1]: 630 ± 30 nM; CC50 (HL60): 130 ± 20 nM; CC50 (Jurkat): 120 ± 60 nM; CC50 (K562): 180 ± 50 nM; CC50 (U937): 120 ± 10 nM; CC50 [2]: 790 ± 20 nM; cells in late apoptosis (stained with 7-AAD) (Jurkat cells [3]; Jurkat): 8.44%; Jurkat tumor cells with the Δψ dissipation phenomenon (Jurkat cells [3]; MitoSense Red): 67.76%; cells with cytochrome c released into the cytoplasm (Negative gate) (Jurkat tumor cell line): 33.51%; cells demonstrating oxidative stress along with the marker of early apoptosis, annexin (Jurkat cells [4]): 11.86%; cells with autophagy (gate M3-2) (Jurkat cells [5]): 79.96%; percentage of cells in the S-phase (Jurkat cells [6]): ~ 47%
